Reference: patent US9814778B2, “Ionically crosslinked polyelectrolytes as underwater adhesives as controlled release vehicles” (The University of Toledo, priority 2014, dated 2017)

Legend:
[1] = Dye loading efficiency and loading capacity of dye-loaded coacervates (UV-Vis of supernatant); assay type: physicochemical
Protocol: All solutions were adjusted to pH 7 using HCl and NaOH prior to mixing. The mixtures were than centrifuged at 15,000 rpm for 90 min using an Ependorf centrifuge. […] The loading capacity (LC) and loading efficiency (LE) for each loading procedure was calculated by subtracting the mass of dye in the supernatant from the total mass of dye originally in the solutions in the microcentrifuge tubes. The total dye mass in the supernatant was determined by measuring the supernatant mass in each tube and determining the supernatant dye concentration using UV-Vis spectroscopy (Varian Cary 50 Spectrophotometer) and the absorbance at a wavelength of 614 nm (ε=9.57×103 m2/mol) and 555 nm (ε=9.82×103 m2/mol) for Fast Green FCF and Rhodamine B, respectively. The LC and LE were then calculated using the following equations: […]
Similarly, the LEs of the dye-loaded complexes was measured at a constant initial dye concentration of 1 mg/ml while the PAH concentration was varied. The dye-loaded complex samples were prepared as outlined above; however, the PAH concentration was varied (between 2.5 and 10.0 wt %). […] The LC- and LE-values were then determined using Equations 1 and 2.

[2] = Dye release from dye-loaded complexes in 1×PBS at 37° C. (UV-Vis); assay type: physicochemical; settings: PAH/PPi and PAH/TPP complexes, 7-8 mm plugs, time span of up to 164 days
Protocol: The supernatant was removed from the microcentrifuge tube, and the inside of the tube was rinsed with DI water to ensure all excess supernatant was removed. The release medium, 1 ml of 1×PBS, was then added to the microcentrifuge tube. During the release evaluations, the contents of the microcentrifuge tube was mixed at 400 rpm in an Ependorf Thermomixer at 37° C. The old PBS solution was replaced with fresh PBS daily. UV-Vis spectroscopy was used to determine the amount of dye released within this one day interval. The concentration of dye in the PBS was determined using the absorbance of the solution as described above. These release studies were run until the amount of dye released in one day became so low that a discernable peak in the UV-Vis spectrum could not be obtained. The weight of the adhesives was also tracked during the release process using the procedure described above. Each release experiment was repeated thrice to ensure reproducibility. An additional release study was run (using the same complex/dye compositions) with tap water at room temperature as the release medium.
The released dye concentration in the PBS was determined using UV-Vis spectroscopy, with the PBS being replaced daily. This procedure was repeated until discernable UV-Vis peaks could no longer be obtained from the PBS samples in order to obtain release profiles. […]

PAH/PPi complexes = test: Isothermal titration calorimetry of dyes into PAH/PPi dispersion; assay type: binding; settings: pH 7
Protocol: (§1) The Fast Green FCF and Rhodamine B solutions were then prepared at concentrations of 0.43 and 0.80 wt %, respectively. All solutions were adjusted to pH 7 using HCl and NaOH. ITC experiments were run by placing the PAH/PPi or PAH/TPP complex solutions in the sample cell, and loading the dye solution into the injector. The dye solutions were then titrated using twenty 15-μL injections, with 20 min equilibration intervals between each injection. The contents of the sample cell were stirred at 307 rpm with the impeller-shaped injector tip. The instrument software was used to integrate the raw ITC data obtained from these titrations. The heat of dilution, which was obtained by titrating the dye solutions into DI water, was then subtracted from the integrated data to obtain the final thermograms. To ensure reproducibility, each ITC test was repeated twice.
(§2) Fast Green FCF and Rhodamine B are anionic and cationic, respectively. ITC was used to probe the binding of these dye molecules to the ionically crosslinked networks. In ITC the heat required to maintain a sample cell (which contains a binding substrate solution) at a constant temperature upon the addition of a binding ligand solution is measured, with endothermic or exothermic peaks in the ITC raw data indicating binding. […]

PAH/TPP complexes = test: Isothermal titration calorimetry of dyes into PAH/TPP dispersion; assay type: binding; settings: pH 7
Protocol: as §1, §2

[3] = in solution; cited from earlier work
[4] = PAH/PPi, initial dye 0.5 mg/ml, 10.0 wt % PAH
[5] = PAH/PPi, initial dye 1 mg/ml, 5% PAH
[6] = PAH/PPi, initial dye 1 mg/ml, 10% PAH
[7] = PAH/PPi, initial dye 1 mg/ml, 10.0 wt % PAH
[8] = PAH/PPi, initial dye 4 mg/ml, 10.0 wt % PAH
[9] = PAH/TPP, initial dye 0.5 mg/ml, 10.0 wt % PAH
[10] = PAH/TPP, initial dye 1 mg/ml, 5% PAH
[11] = PAH/TPP, initial dye 1 mg/ml, 10% PAH
[12] = PAH/TPP, initial dye 1 mg/ml, 10.0 wt % PAH
[13] = PAH/TPP, initial dye 4 mg/ml, 10.0 wt % PAH

Molecule	Loading Capacity [1, 4]	Loading Efficiency [1, 4]	Loading Efficiency [1, 5]	Loading Efficiency [1, 6]	Loading Capacity [1, 7]	Loading Capacity [1, 8]	Loading Efficiency [1, 8]	Loading Capacity [1, 9]	Loading Efficiency [1, 9]	Loading Efficiency [1, 10]	Loading Efficiency [1, 11]	Loading Capacity [1, 12]	Loading Capacity [1, 13]	Loading Efficiency [1, 13]	binding to the ionically crosslinked network (ITC) (PAH/PPi complexes)	binding to the ionically crosslinked network (ITC) (PAH/TPP complexes)	also measured
CCN(Cc1cccc(S(=O)(=O)[O-])c1)c1ccc(C(=C2C=CC(=[N+](CC)Cc3cccc(S(=O)(=O)[O-])c3)C=C2)c2ccc(O)cc2S(=O)(=O)[O-])cc1.[Na+].[Na+] [Fast Green, Fast Green FCF]	3.16 ± 0.17 mg/mL	56.48 ± 3.04%	61.69 ± 1.13%	63.03 ± 1.37%	7.04 ± 0.15 mg/mL	30.62 ± 0.93 mg/mL	68.54 ± 2.09%	3.31 ± 0.07 mg/mL	64.01 ± 1.45%	72.40 ± 0.53%	72.94 ± 3.09%	7.54 ± 0.32 mg/mL	30.89 ± 1.43 mg/mL	74.74 ± 3.47%	strong cooperative binding	strong cooperative binding	fraction of payload released [2]: < 5%
CCN(CC)c1ccc2c(-c3ccccc3C(=O)O)c3ccc(=[N+](CC)CC)cc-3oc2c1.[Cl-] [Rhodamine B]	0.55 ± 0.16 mg/mL	9.83 ± 2.79%	3.76 ± 0.45%	6.38 ± 0.79%	0.71 ± 0.09 mg/mL	3.46 ± 1.24 mg/mL	7.76 ± 2.77%	0.45 ± 0.11 mg/mL	8.71 ± 2.10%	3.78 ± 0.32%	6.27 ± 1.04%	0.65 ± 0.11 mg/mL	2.74 ± 0.58 mg/mL	6.62 ± 1.41%	binds only very weakly and non-cooperatively	binds only very weakly and non-cooperatively	Loading Efficiency ([1]; PAH/PPi, initial dye 1 mg/ml, 2.5% PAH): 1.49 ± 0.30%; Loading Efficiency ([1]; PAH/TPP, initial dye 1 mg/ml, 2.5% PAH): 1.59 ± 0.65%
tripolyphosphate [TPP]	–	–	–	–	–	–	–	–	–	–	–	–	–	–	–	–	pKa,3 [3]: 2.8; pKa,4 [3]: 6.5; pKa,5 [3]: 9.2
